Source: patent publication US20260151403A1, “NEK7 DEGRADERS AND METHODS OF USE THEREOF” (Captor Therapeutics S.A., priority 2022, published 2026)

Tests used:
[1] = target: T1, [NEK7]-[compound of formula (I)]-[CRBN/DDB1] complex (Homo sapiens, UniProt Q8TDX7+Q96SW2); experiment: AlphaLISA dose response ternary complex formation assay; assay type: binding; settings: 1 μM compound, normalized to maximum signal of Compound 2 (positive control) and DMSO background; for activation at 1 µM: read-out: Normalized AlphaLISA ternary complex average signal at 1 μM molecule
T1 sequence (Q8TDX7 whole entry): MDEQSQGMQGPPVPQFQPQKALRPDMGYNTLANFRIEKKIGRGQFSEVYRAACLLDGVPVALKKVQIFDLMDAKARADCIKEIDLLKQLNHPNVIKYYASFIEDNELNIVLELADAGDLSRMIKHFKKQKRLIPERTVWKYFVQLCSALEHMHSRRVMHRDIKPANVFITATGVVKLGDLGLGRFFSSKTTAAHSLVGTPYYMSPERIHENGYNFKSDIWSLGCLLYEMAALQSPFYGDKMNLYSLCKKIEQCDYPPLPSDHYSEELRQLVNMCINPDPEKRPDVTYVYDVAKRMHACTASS
T1 sequence (Q96SW2 whole entry): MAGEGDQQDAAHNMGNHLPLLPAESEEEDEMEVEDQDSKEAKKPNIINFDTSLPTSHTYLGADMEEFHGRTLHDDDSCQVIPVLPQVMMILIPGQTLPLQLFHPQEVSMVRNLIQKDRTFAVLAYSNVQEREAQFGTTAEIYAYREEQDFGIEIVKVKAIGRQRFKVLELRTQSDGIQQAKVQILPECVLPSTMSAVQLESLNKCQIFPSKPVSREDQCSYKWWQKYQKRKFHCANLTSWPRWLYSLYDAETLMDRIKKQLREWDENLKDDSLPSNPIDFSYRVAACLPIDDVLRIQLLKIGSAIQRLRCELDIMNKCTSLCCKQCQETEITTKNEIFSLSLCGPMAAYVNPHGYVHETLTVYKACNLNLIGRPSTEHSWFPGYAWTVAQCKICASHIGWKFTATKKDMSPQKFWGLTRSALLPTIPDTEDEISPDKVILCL
T1 sequence (Q16531 whole entry partner): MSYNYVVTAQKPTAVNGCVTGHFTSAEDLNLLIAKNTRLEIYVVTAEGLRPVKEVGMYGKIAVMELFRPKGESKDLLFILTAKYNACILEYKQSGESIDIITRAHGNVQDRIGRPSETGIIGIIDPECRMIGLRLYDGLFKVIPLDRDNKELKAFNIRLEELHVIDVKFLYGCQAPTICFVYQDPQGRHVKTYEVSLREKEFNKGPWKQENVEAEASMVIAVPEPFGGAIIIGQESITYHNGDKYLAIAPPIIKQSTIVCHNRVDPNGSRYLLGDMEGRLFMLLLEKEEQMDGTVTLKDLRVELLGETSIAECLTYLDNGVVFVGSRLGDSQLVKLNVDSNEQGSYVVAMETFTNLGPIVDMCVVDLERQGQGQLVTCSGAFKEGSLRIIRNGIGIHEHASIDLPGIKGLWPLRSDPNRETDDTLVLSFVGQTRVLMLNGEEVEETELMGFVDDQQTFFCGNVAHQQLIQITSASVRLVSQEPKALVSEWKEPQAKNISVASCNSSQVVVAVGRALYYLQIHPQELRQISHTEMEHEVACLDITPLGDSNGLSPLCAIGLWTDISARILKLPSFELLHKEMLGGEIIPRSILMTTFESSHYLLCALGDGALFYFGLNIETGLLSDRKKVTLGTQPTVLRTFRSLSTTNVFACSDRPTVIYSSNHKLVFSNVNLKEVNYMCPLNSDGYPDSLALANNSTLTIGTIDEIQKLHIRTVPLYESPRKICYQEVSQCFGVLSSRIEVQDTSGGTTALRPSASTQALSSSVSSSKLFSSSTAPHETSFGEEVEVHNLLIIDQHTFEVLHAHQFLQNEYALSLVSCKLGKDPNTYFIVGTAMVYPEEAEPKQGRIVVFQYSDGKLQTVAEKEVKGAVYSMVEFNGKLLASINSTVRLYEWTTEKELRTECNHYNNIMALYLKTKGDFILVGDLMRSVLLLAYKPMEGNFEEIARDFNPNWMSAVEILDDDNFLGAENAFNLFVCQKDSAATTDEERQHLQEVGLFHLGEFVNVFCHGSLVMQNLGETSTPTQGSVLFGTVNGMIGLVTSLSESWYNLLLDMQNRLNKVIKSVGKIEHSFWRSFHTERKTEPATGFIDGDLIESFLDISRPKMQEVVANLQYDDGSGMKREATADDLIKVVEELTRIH
Method in brief: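 Biotinylated NEK7 (200 nM) on streptavidin donor beads and 6×His-CRBN/Strep-DDB1 (200 nM) on anti-His acceptor beads, each at 40 μg/ml and preincubated 30 min, then mixed and added to compound in HBS pH 7.4, 0.1% Tween-20, 1 mM DTT, 2% DMSO. After 30 min at 25 °C, AlphaLISA signal was read (ex 680/em 615 nm) and normalised to DMSO background and maximal Compound 2 signal.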

[2] = target: T1, [NEK7]-[compound of formula (I)]-[CRBN/DDB1] complex; experiment: HTRF ternary complex assay; assay type: binding; settings: dose-response, 180 min at 25° C.; for EC50: read-out: HTRF ternary complex Average pEC50 by molecule (converted)
Method in brief: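 Mix of 24 nM NEK7, 52.8 nM 6×His-CRBN/Strep-DDB1, 3 nM streptavidin-Eu cryptate and 6.67 nM anti-6×His-d2 in PPI Europium detection buffer with 1 mM DTT, dose-response compound, 0.5% DMSO, 180 min at 25° C. TR-FRET (665/620) read, normalized to DMSO background, Hill-slope fit gave EC50/pEC50.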

NEK7-HiBiT protein = NEK7-HiBiT protein (Homo sapiens, UniProt Q8TDX7); experiment: NEK7-HiBiT degradation assay (Nano-Glo HiBiT Lytic Assay) in HEK293 NEK7-HiBiT cells; assay type: cell-based; settings: 24 h, conc. 0.1, 1 and 10 μM tested, concentration of the table values not stated, mean of 3 technical replicates
NEK7-HiBiT protein, sequence (Q8TDX7 whole entry): as the sequence (Q8TDX7 whole entry) above
NEK7-HiBiT protein, sequence (Q96SW2 whole entry, further chain): as the sequence (Q96SW2 whole entry) above
NEK7-HiBiT protein, sequence (Q16531 whole entry partner): as the sequence (Q16531 whole entry partner) above
Method in brief: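 HEK293 cells with CRISPR knock-in N-terminal HiBiT-tagged NEK7 exposed to compound for 24 h at 37 °C, 5% CO2. Residual NEK7-HiBiT was read as Nano-Glo HiBiT lytic luminescence and expressed as % of DMSO control across triplicates; compounds run at 0.1, 1 and 10 μM.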

Row | Compound | activation at 1 µM [1] [%] | EC50 [2] [µM] | Levels of NEK7-HiBiT Protein (as a % of DMSO control) (NEK7-HiBiT protein) | Normalized AlphaLISA ternary complex average signal at 1 μM molecule [1] | HTRF ternary complex Average pEC50 by molecule [2]
1 | CC(=O)NC1CCC(c2ccc3c(c2)CN(C2CCC(=O)NC2=O)C3=O)NC1 (single isomer, unassigned) [33 Isomer 1, N-(6-(2-(2,6-dioxopiperidin-3-yl)-1-oxoisoindolin-5-yl)piperidin-3-yl)acetamide] | 20 to 80 | 0.1 to 0.316 | A (Levels of NEK7-HiBiT Protein ≤ 25%) |  | 
2 | 3-(5-((2R,6S)-6-butyltetrahydro-2H-pyran-2-yl)-1-oxoisoindolin-2-yl)piperidine-2,6-dione and 3-(5-((2S,6R)-6-butyltetrahydro-2H-pyran-2-yl)-1-oxoisoindolin-2-yl)piperidine-2,6-dione [69 Isomer 1] |  |  | A (Levels of NEK7-HiBiT Protein ≤ 25%) | A (Normalized activity > 80%) | +++ (6.5 > pEC50 > 6.0)
3 | O=C1CCC(N2Cc3cc(C4CCC(c5ccccc5)CO4)ccc3C2=O)C(=O)N1 (single isomer, unassigned) [74 Isomer 1, 3-(1-oxo-5-(5-phenyltetrahydro-2H-pyran-2-yl)isoindolin-2-yl)piperidine-2,6-dione] |  | > 3.16 | D (Levels of NEK7-HiBiT Protein ≥ 75%) | D (Normalized activity < 10%) | 
4 | Cc1cc(C2CCCCN2)cc2c1C(=O)N(C1CCC(=O)NC1=O)C2 (stereo not drawn) [Compound 21, 3-(7-methyl-1-oxo-5-(piperidin-2-yl)isoindolin-2-yl)piperidine-2,6-dione] | < 10 | > 3.16 | D (Levels of NEK7-HiBiT Protein ≥ 75%) |  | 
5 | O=C1CCC(N2Cc3cc(C4CCCCN4)cc(F)c3C2=O)C(=O)N1 (stereo not drawn) [Compound 24, 3-(7-fluoro-1-oxo-5-(piperidin-2-yl)isoindolin-2-yl)piperidine-2,6-dione] | < 10 | > 3.16 | D (Levels of NEK7-HiBiT Protein ≥ 75%) |  | 
6 | CCCCC1CCC(c2ccc3c(c2)CN(C2CCC(=O)NC2=O)C3=O)OC1 (single isomer, unassigned) [70 Isomer 1, 3-(5-(5-butyltetrahydro-2H-pyran-2-yl)-1-oxoisoindolin-2-yl)piperidine-2,6-dione] |  | > 3.16 | D (Levels of NEK7-HiBiT Protein ≥ 75%) | D (Normalized activity < 10%) | 
